Measured values published in article PMC10095932 (Molecules, 2023).
Read-outs that look alike come from different tables or passages of the source. Where a SMILES comes first, the peptide text is derived from it. Bridges are numbered along the chain shown (N, C = ends).

Key:
human NPR-A = molecular target: T1, human NPR-A (Homo sapiens, UniProt P16066); assay: cGMP ALPHAscreen, cGMP production in HEK 293 cells transiently overexpressing hNPR-A; format: cell-based; conditions: HEK 293 cells overexpressing hNPR-A; for Emax at 10 µM: HEK293, read-out: cGMP production, % of the maximum response (compared with DNP, hANP, hBNP); for EC50: 30 min at 37 °C, cGMP ALPHAscreen, three separate experiments in triplicate, read-out: hNPR-A EC50 (95% CI), potency to stimulate cGMP production
T1 construct: expressed in transfected cells; host or cells: HEK 293 cells, transient, Lipofectamine 2000
T1 sequence (P16066 33-1061): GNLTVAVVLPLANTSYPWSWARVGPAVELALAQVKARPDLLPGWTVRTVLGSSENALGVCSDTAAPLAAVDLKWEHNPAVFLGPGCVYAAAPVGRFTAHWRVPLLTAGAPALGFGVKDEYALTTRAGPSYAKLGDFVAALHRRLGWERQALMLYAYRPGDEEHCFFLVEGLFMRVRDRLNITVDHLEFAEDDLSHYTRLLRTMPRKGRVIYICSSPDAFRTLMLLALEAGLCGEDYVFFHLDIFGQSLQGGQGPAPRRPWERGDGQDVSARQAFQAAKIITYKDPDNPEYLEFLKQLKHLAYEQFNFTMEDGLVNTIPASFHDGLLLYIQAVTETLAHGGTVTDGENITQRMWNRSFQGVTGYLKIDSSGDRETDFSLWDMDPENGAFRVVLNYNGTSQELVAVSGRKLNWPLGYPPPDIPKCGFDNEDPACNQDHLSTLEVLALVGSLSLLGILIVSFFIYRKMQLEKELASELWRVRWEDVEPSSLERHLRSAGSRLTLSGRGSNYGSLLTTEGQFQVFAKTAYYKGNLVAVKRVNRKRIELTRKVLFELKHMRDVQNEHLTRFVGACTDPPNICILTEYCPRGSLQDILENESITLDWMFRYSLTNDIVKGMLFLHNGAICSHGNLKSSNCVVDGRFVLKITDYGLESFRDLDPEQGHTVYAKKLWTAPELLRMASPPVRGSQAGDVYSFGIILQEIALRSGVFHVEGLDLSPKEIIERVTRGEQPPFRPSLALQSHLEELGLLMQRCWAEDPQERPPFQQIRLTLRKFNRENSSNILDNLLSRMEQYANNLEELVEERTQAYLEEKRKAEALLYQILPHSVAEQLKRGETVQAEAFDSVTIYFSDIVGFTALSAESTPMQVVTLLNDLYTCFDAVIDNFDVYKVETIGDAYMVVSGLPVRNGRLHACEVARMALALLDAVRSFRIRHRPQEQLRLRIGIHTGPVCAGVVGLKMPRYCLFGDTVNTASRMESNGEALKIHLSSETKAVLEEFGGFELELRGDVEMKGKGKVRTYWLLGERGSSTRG
Procedure: (§1) Cells were cultured at 5% CO2 and 37 °C. HEK 293 cells were cultured in high glucose DMEM (Gibco, Carlsbad, CA, USA) supplemented with 10% FBS, and 1% penicillin/streptomycin. HEK 293 cells were seeded in media lacking penicillin/streptomycin 24 to 48 h pre-transfection. PC12 cells were cultured in high glucose DMEM (Gibco) supplemented with 10% FBS and 1% penicillin/streptomycin.
HEK 293 cells were transfected using the lipofectamine 2000 transfection protocol (Invitrogen). Cells (95% confluence) were transfected with 45% pcDNA3.1/hNPR-A, 45% pcDNA3.1, and 10% pEGFP-NI to the optimal DNA concentration specified in the protocol. The co-transfection with pEGFP-NI plasmid allowed the determination of the transfection efficiency. This was assessed by the estimation of the number of GFP-expressing cells using an Olympus IX70 inverted fluorescence microscope. Transfected cells were used for assay purposes within 24 h.
(§2) The cGMP ALPHAscreen was performed using the ALPHAscreen Protein A detection kit and the biotinylated cGMP supplement (Perkin Elmer, Waltham, MA, USA) with rabbit anti-cGMP polyclonal antibody (Biovision, Mountain View, CA, USA). Cells were detached from the flask and the resulting pellet was resuspended in stimulation buffer (HBSS supplemented with 0.1% w/v BSA and 1 mM IBMX at 37 °C). Cells were added to a white 384-well Optiplate (Perkin Elmer, Waltham, USA) to 30,000 cells per well for HEK 293 cells and 10,000 cells per well for PC12 cells. Cells were incubated with different concentrations of test peptides (concentration range of 1 × 10^−5 to 1 × 10^−11 M in stimulation buffer) at 37 °C for 30 min. Cells were lysed with lysis buffer (1 M HEPES, 0.3% Tween-20, 1% BSA in H2O, pH 7.4). Then 5 μL acceptor-bead mix was added to each well under subdued lighting conditions, followed by 5 μL of donor-bead mix. Plates were incubated for ~12 h, slowly shaking at room temperature. After incubation, the ALPHAscreen signal was measured using an EnVision plate reader (Perkin Elmer). The standard curve consisted of cGMP in a concentration range of 1 × 10^−6 to 1 × 10^−12 M. All data points were acquired in triplicate and were analyzed using GraphPad Prism 5.0 software (GraphPad Software, Inc., San Diego, CA, USA).

rat NPR-A = molecular target: T2, rat NPR-A (Rattus norvegicus, UniProt P18910); assay: cGMP ALPHAscreen, cGMP production in PC12 cells; format: cell-based; conditions: for EC50: PC12 cells, cGMP ALPHAscreen
T2 construct: endogenous in cells; host or cells: rat PC12 cells
T2 sequence (P18910 29-1057): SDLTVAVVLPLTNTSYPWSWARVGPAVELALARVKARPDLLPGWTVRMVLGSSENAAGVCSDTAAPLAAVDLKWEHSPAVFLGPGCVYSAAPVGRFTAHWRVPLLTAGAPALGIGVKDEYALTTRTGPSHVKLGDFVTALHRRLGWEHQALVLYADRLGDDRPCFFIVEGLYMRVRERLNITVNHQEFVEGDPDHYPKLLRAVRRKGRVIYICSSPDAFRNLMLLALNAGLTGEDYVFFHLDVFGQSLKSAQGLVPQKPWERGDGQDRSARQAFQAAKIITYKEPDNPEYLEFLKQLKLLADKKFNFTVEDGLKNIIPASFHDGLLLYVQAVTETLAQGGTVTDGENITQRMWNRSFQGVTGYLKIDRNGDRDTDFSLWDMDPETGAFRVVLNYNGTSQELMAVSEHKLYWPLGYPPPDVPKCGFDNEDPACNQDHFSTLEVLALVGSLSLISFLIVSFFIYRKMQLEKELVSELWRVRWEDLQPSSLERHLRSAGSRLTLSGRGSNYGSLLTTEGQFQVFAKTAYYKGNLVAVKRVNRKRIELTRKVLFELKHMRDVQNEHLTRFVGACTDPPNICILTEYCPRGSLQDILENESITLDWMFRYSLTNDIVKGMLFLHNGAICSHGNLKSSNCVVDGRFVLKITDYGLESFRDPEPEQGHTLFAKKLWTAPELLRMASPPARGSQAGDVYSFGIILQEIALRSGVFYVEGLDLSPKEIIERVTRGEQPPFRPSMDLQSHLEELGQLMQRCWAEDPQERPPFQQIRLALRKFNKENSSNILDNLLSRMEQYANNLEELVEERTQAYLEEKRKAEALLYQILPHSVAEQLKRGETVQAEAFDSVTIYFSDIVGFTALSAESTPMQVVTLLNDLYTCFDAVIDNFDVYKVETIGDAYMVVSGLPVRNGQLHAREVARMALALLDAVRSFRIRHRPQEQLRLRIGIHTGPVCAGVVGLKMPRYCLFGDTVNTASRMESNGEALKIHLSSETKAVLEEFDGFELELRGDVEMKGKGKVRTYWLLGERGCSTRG
Procedure: NP activity can be determined by the effectiveness of the peptide to elicit cGMP production through NPR-A. The cGMP ALPHAscreen evaluates the ability of peptides to stimulate cGMP production in cells through a non-radioactive, homogenous, proximity assay which encompasses […]. […] In order to evaluate the potency of TNPa-e at rNPR-A, TNPa-e were evaluated using the cGMP ALPHAscreen in rat PC12 cells.
as §1, §2

[1] = 30 min at 37 °C, three to five separate experiments in triplicate, read-out: rNPR-A EC50 (95% CI), potency to stimulate cGMP production

SMILES	Emax at 10 µM (human NPR-A) [%]	EC50 (human NPR-A) [µM]	EC50 (rat NPR-A; [1]) [nM]	EC50 (rat NPR-A; read-out: EC50 at rNPR-A) [nM]	selectivity / difference in potency for rNPR-A over hNPR-A (rat NPR-A; rNPR-A (PC12) versus hNPR-A (HEK 293) cGMP potency) [fold]
CC[C@H](C)[C@H](NC(=O)[C@H](CCCCN)NC(=O)[C@H](CO)NC(=O)[C@H](CC(=O)O)NC(=O)[C@@H](N)CO)C(=O)NCC(=O)N[C@@H](CC(=O)O)C(=O)NCC(=O)N[C@H]1CSSC[C@@H](C(=O)N[C@@H](CC(N)=O)C(=O)N[C@@H](CCCNC(=N)N)C(=O)N2CCC[C@H]2C(=O)N[C@H](C(=O)N[C@@H](CCC(N)=O)C(=O)N[C@@H](CC(N)=O)C(=O)N[C@@H](CCCNC(=N)N)C(=O)N2CCC[C@H]2C(=O)N[C@@H](CCCCN)C(=O)N[C@@H](CCCCN)C(=O)O)C(C)C)NC(=O)CNC(=O)[C@H](CC(C)C)NC(=O)CNC(=O)[C@H](CO)NC(=O)[C@H](C(C)C)NC(=O)[C@H](CO)NC(=O)CNC(=O)[C@H]([C@@H](C)CC)NC(=O)[C@H](Cc2c[nH]cn2)NC(=O)[C@H](CC(=O)O)NC(=O)[C@H](CC(C)C)NC(=O)[C@@H]2CCCN2C(=O)[C@H](CC(C)C)NC(=O)CNC(=O)[C@H](Cc2ccccc2)NC1=O [TNPa] (H-SDSKIGDGCFGLPLDHIGSVSGLGCNRPVQNRPKK-OH; disulfide 9-25)	< 20	> 10	2020	> 1000	–
CC[C@H](C)[C@@H]1NC(=O)[C@H](CCCNC(=N)N)NC(=O)[C@H](CC(=O)O)NC(=O)[C@H]([C@@H](C)CC)NC(=O)[C@@H]2CCCN2C(=O)[C@H](Cc2ccccc2)NC(=O)CNC(=O)[C@H](Cc2ccccc2)NC(=O)[C@@H](NC(=O)CNC(=O)[C@H](CC(N)=O)NC(=O)CNC(=O)[C@@H](NC(=O)[C@H](CCCCN)NC(=O)[C@@H]2CCCN2C(=O)[C@H](CC(=O)O)NC(=O)[C@@H](N)CO)[C@@H](C)CC)CSSC[C@@H](C(=O)N[C@@H](CC(N)=O)C(=O)N[C@@H](CCCNC(=N)N)C(=O)N[C@@H](CC(C)C)C(=O)N[C@H](C(=O)N[C@@H](CCC(N)=O)C(=O)N[C@@H](CC(N)=O)C(=O)N2CCC[C@H]2C(=O)N2CCC[C@H]2C(=O)N[C@@H](CCCCN)C(=O)N2CCC[C@H]2C(=O)N[C@H](C(=O)N[C@@H](CO)C(=O)NCC(=O)N[C@@H](CCC(=O)O)C(=O)N[C@@H](CO)C(=O)O)[C@@H](C)CC)C(C)C)NC(=O)CNC(=O)[C@H](CC(C)C)NC(=O)CNC(=O)[C@H](CO)NC(=O)[C@H](C(C)C)NC(=O)[C@H](CO)NC(=O)CNC1=O [TNPd] (H-SDPKIGNGCFGFPIDRIGSVSGLGCNRLVQNPPKPISGES-OH; disulfide 9-25)	~30	> 10	18	–	560
CC[C@H](C)[C@H](NC(=O)[C@H](CCCCN)NC(=O)[C@H](CO)NC(=O)[C@H](CC(=O)O)NC(=O)[C@@H](N)CO)C(=O)NCC(=O)N[C@@H](CC(=O)O)C(=O)NCC(=O)N[C@H]1CSSC[C@@H](C(=O)N[C@@H](CC(N)=O)C(=O)N[C@@H](CCCNC(=N)N)C(=O)N2CCC[C@H]2C(=O)N[C@H](C(=O)N[C@@H](CCC(N)=O)C(=O)N[C@@H](CC(N)=O)C(=O)N[C@@H](CCCNC(=N)N)C(=O)N2CCC[C@H]2C(=O)N[C@@H](CCCCN)C(=O)N[C@@H](CCC(N)=O)C(=O)N[C@H](C(=O)N2CCC[C@H]2C(=O)NCC(=O)NCC(=O)N[C@@H](CO)C(=O)O)[C@@H](C)CC)C(C)C)NC(=O)CNC(=O)[C@H](CC(C)C)NC(=O)CNC(=O)[C@H](CO)NC(=O)[C@H](C(C)C)NC(=O)[C@H](CO)NC(=O)CNC(=O)[C@H]([C@@H](C)CC)NC(=O)[C@H](Cc2c[nH]cn2)NC(=O)[C@H](CC(=O)O)NC(=O)[C@H](CC(C)C)NC(=O)[C@@H]2CCCN2C(=O)[C@H](CC(C)C)NC(=O)CNC(=O)[C@H](Cc2ccccc2)NC1=O [TNPe] (H-SDSKIGDGCFGLPLDHIGSVSGLGCNRPVQNRPKQIPGGS-OH; disulfide 9-25)	< 20	> 10	1800	> 1000	–
